These results are taken from ChEMBL document CHEMBL1201862, “PubChem BioAssay data set” (2004).

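These data come from cells grown in 96-well plates and exposed to compound for 48 hours at five concentrations. GI50 marks 50% less growth.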 The source made the active and inactive calls. No stated cut-off is given here; in the data, active = GI50 up to about 1.1 µM and inactive = higher. Where only a bound is given, the exact number is not on record here.

Assay in all cases: growth of human tumour cells (NCI), 48 h
Assay [1] has as its system SK-MEL-5.
In assay [2] the test system is U-251.
Assay [3] has as its system SK-MEL-2.
For assay [4], the system named is BT-549.
The subject of assay [5] is TK-10.
Assay [6] relates to Malme-3M.
For assay [7], the system named is RXF 393.
The test system of assay [8] is UACC-62.
For assay [9], the system named is SW-620.
Assay [10] deals with CCRF-CEM.
Assay [11] has as its system COLO 205.
Assay [12] deals with MDA-N.
For assay [13], the system named is SNB-19.
In assay [14] the test system is 786-0.
For assay [15], the system named is T47D.
In assay [16] the test system is NCI-H23.
In assay [17] the test system is UACC-257.
Assay [18] concerns NCI-H226.

Regarding `N=C(N)NCCNC(=N)N`, the GI50 in assay [1] was > 100 µM (inactive); in assay [2] it was > 100 µM (inactive); in assay [3], > 100 µM (inactive); in [4], > 100 µM (inactive); in assay [5] it was > 100 µM (inactive); in assay [6], 37.5 µM (inactive). Also, the GI50 in [7], in [8], in [9], in [10], in [11] and in [12] was > 100 µM (inactive) each time. The GI50 in assay [13] was > 100 µM (inactive); in assay [14], > 100 µM (inactive); in [15] it was 84.3 µM (inactive); in assay [16] it was > 100 µM (inactive); in [17], > 100 µM (inactive).
Turning to `CC(C)=NN/C(=N\c1ccc(Cl)cc1)NS(=O)(=O)c1ccc(C)cc1`, the GI50 in assay [1] is 60.3 µM (inactive); in assay [2], 96.8 µM (inactive); in [3], 73.1 µM (inactive); in assay [4], > 100 µM (inactive); in assay [18], > 100 µM (inactive); in [5], 50.8 µM (inactive). Moreover, the GI50 was 61.2 µM (inactive) in [6]; 49 µM (inactive) in assay [8]; > 100 µM (inactive) in assay [9]; > 100 µM (inactive) in assay [10]; > 100 µM (inactive) in assay [11]; > 100 µM (inactive) in assay [12]. Moreover, the GI50 was > 100 µM (inactive) in assay [13]; 62.4 µM (inactive) in [14]; 23.8 µM (inactive) in [15]; > 100 µM (inactive) in assay [16]; 35.2 µM (inactive) in assay [17].
For the compound `O=C(N/N=C/c1ccco1)c1cc(I)cc(I)c1O`, the GI50 in assay [1] was 12.4 µM (inactive); in assay [3] it was 5.22 µM (inactive); in [4] it was > 50 µM (inactive); in [18], 11.4 µM (inactive); in assay [6] it was 22.2 µM (inactive); in assay [7], 20.7 µM (inactive). In addition, the GI50 is 16.6 µM (inactive) in assay [8]; 22.2 µM (inactive) in assay [9]; > 50 µM (inactive) in assay [10]; 3.02 µM (inactive) in assay [11]; 22.9 µM (inactive) in assay [12]; 32.2 µM (inactive) in assay [13]. The GI50 in [14] is 15 µM (inactive); in [15], 26 µM (inactive); in assay [16], 21.7 µM (inactive).
Regarding `O=C(c1ccccc1)c1ccc2[nH]c(-c3c(Cl)c(Cl)c(Cl)c(Cl)c3C(=O)Nc3ccco3)nc2c1`, the GI50 in assay [1] was 28.4 µM (inactive); in assay [2], 42.5 µM (inactive); in [3], 20.9 µM (inactive); in assay [4] it was 22.2 µM (inactive); in assay [18] it was 54.2 µM (inactive); in assay [5] it was 39.7 µM (inactive). The GI50 in [7] is 41.8 µM (inactive); in assay [8], 49.5 µM (inactive); in [9], 37.8 µM (inactive); in assay [10] it was 26.9 µM (inactive); in assay [11], 45.5 µM (inactive); in assay [12], 15.3 µM (inactive). Further, the GI50 was 99.8 µM (inactive) in [13]; 96.2 µM (inactive) in assay [14]; 37 µM (inactive) in assay [15]; 4.86 µM (inactive) in [16]; 45.7 µM (inactive) in assay [17].
As for `Nc1nncc2[nH]nnc12`, the GI50 was 16.5 µM (inactive) in [1]; > 100 µM (inactive) in assay [2]; > 100 µM (inactive) in assay [3]; > 100 µM (inactive) in assay [4]; > 100 µM (inactive) in assay [18]; > 100 µM (inactive) in [5]. In addition, the GI50 is > 100 µM (inactive) in [7]; > 100 µM (inactive) in assay [8]; 83.6 µM (inactive) in assay [9]; 11 µM (inactive) in [10]; > 100 µM (inactive) in [11]; > 100 µM (inactive) in assay [12]. The GI50 in assay [13], in assay [14], in [15], in assay [16] and in assay [17] was > 100 µM (inactive) in each case.
Turning to `COC1=CC2=NCCc3n[nH]c(c32)C1=O`, the GI50 was 18.3 µM (inactive) in [1]; 16.7 µM (inactive) in [2]; 15.3 µM (inactive) in assay [3]; 16.9 µM (inactive) in [4]; 22.1 µM (inactive) in assay [5]; 16.3 µM (inactive) in [6]. The GI50 in [8] was 14 µM (inactive); in assay [9], 13.6 µM (inactive); in assay [11], 17.7 µM (inactive); in [12] it was 10.9 µM (inactive); in assay [13] it was 46 µM (inactive); in [14], 18.5 µM (inactive). Also, the GI50 in assay [15] was 2.9 µM (inactive); in [16], 14.4 µM (inactive); in assay [17], 15.6 µM (inactive).
As to `Cc1cccc(CP(Cc2cccc(C)c2)CC2(Cp3c4ccccc4c4ccccc43)COC2)c1`, the GI50 was 2.55 µM (inactive) in [1]; 0.47 µM (active) in assay [2]; 7.23 µM (inactive) in assay [3]; 3.96 µM (inactive) in assay [4]; 4.11 µM (inactive) in assay [18]; 5.13 µM (inactive) in assay [6]. Besides, the GI50 in assay [7] was > 20.3 µM (inactive); in assay [8], 11.7 µM (inactive); in assay [9], 10.3 µM (inactive); in assay [10], 0.406 µM (active); in assay [11], 0.249 µM (active); in [12] it was 6.32 µM (inactive). Moreover, the GI50 in assay [13] was 5.96 µM (inactive); in assay [14], 1.53 µM (inactive); in assay [15], 1.73 µM (inactive); in assay [16], 11.5 µM (inactive); in assay [17], 8.97 µM (inactive).
As for `CN1CCN(/C(N)=C(\C#N)C(=O)Nc2ccc(Cl)cc2)CC1`, the GI50 was 27.5 µM (inactive) in assay [1]; 96.8 µM (inactive) in assay [2]; 32.7 µM (inactive) in assay [3]; > 100 µM (inactive) in assay [4]; > 100 µM (inactive) in [18]; 23 µM (inactive) in assay [8]. In addition, the GI50 in [9] was > 100 µM (inactive); in assay [10] it was 30.1 µM (inactive); in assay [11] it was 18.7 µM (inactive); in assay [12], 52.4 µM (inactive); in assay [13], > 100 µM (inactive); in assay [14], 95.5 µM (inactive). For the same compound, the GI50 in assay [15] was > 100 µM (inactive); in assay [16], 67 µM (inactive); in [17] it was 59 µM (inactive).
Take `NC(=O)NC(=O)CCC(NS(=O)(=O)c1ccccc1)C(=O)NC(N)=O` (configuration not stated): the GI50 in [1], in [2], in assay [3], in assay [4], in assay [18] and in assay [5] was > 100 µM (inactive) in each case. The GI50 in [6], in assay [8], in assay [9], in [10], in assay [11] and in assay [12] was > 100 µM (inactive) each time. In addition, the GI50 in assay [13], in [14], in [15], in assay [16] and in assay [17] was > 100 µM (inactive) in each case.
As for `CNC(=O)NS(=O)(=O)c1ccc(C)cc1.NS(=O)O`, the GI50 in assay [1], in [2], in assay [3], in [4], in assay [5] and in [6] was > 100 µM (inactive) each time. Moreover, the GI50 in [7], in assay [8], in assay [9], in [10], in assay [11] and in assay [12] was > 100 µM (inactive) each time. Further, the GI50 in assay [13], in [14], in [15], in assay [16] and in assay [17] was > 100 µM (inactive) throughout.
Consider `O[C@H]1[C@H](O)[C@@H](O)[C@H](O)[C@@H](O)[C@H]1O` [INOSITOL], for which the GI50 in assay [1], in [2], in [3], in [4], in assay [18] and in assay [5] was > 1000 µM (inactive) throughout. Moreover, the GI50 in assay [6] is > 1000 µM (inactive); in assay [7] it was > 1000 µM (inactive); in assay [8], > 1000 µM (inactive); in assay [9], > 1000 µM (inactive); in assay [10] it was 1.7 µM (inactive); in assay [11], > 1000 µM (inactive). Also, the GI50 in assay [13], in assay [14], in [15], in assay [16] and in [17] was > 1000 µM (inactive) in each case.
Consider `O=C(O)CN(CC(=O)O)Cc1cc2c(cc1O)Oc1cc(O)c(CN(CC(=O)O)CC(=O)O)cc1C21OC(=O)c2ccccc21` [OFTASCEINE], for which the GI50 in assay [1], in [2], in [3], in assay [4], in assay [18] and in assay [5] was > 100 µM (inactive) in each case. Besides, the GI50 in [8], in [9], in assay [10], in assay [11], in assay [12] and in [13] was > 100 µM (inactive) each time. Further, the GI50 in [14], in assay [15], in assay [16] and in assay [17] was > 100 µM (inactive) in each case.
